Assay results published in US10081665B2, “Peptides and combination of peptides for use in immunotherapy against various tumors” (immatics biotechnologies GmbH, priority 2015, dated 2018).

Experiments:
CD8+ T cells = assay: In vitro immunogenicity: T-cell priming with aAPCs loaded with peptide/MHC complexes and anti-CD28, pMHC multimer readout; assay type: cell-based, human; settings: in vitro immunogenicity, HLA-A*02 restricted peptides; percentage of positive wells and donors (among evaluable)
Source text: In order to obtain information regarding the immunogenicity of the TUMAPs of the present invention, the inventors performed investigations using an in vitro T-cell priming assay based on repeated stimulations of CD8+ T cells with artificial antigen presenting cells (aAPCs) loaded with peptide/MHC complexes and anti-CD28 antibody.
In order to perform in vitro stimulations by artificial antigen presenting cells loaded with peptide-MHC complex (pMHC) and anti-CD28 antibody, the inventors first isolated CD8+ T cells from fresh HLA-A*02 leukapheresis products via positive selection using CD8 microbeads (Miltenyi Biotec, Bergisch-Gladbach, Germany) of healthy donors obtained from the University clinics Mannheim, Germany, after informed consent. PBMCs and isolated CD8+ lymphocytes were incubated in T-cell medium (TCM) until use consisting of RPMI-Glutamax (Invitrogen, Karlsruhe, Germany) supplemented with 10% heat inactivated human AB serum (PAN-Biotech, Aidenbach, Germany), 100 U/ml Penicillin/100 μg/ml Streptomycin (Cambrex, Cologne, Germany), 1 mM sodium pyruvate (CC Pro, Oberdorla, Germany), 20 μg/ml Gentamycin (Cambrex). 2.5 ng/ml IL-7 (PromoCell, Heidelberg, Germany) and 10 U/ml IL-2 (Novartis Pharma, Nürnberg, Germany) were also added to the TCM at this step. Generation of pMHC/anti-CD28 coated beads, T-cell stimulations and readout was performed in a highly defined in vitro system using four different pMHC molecules per stimulation condition and 8 different pMHC molecules per readout condition.
The purified co-stimulatory mouse IgG2a anti human CD28 Ab 9.3 (Jung et al., 1987) was chemically biotinylated using Sulfo-N-hydroxysuccinimidobiotin as recommended by the manufacturer (Perbio, Bonn, Germany). Beads used were 5.6 μm diameter streptavidin coated polystyrene particles (Bangs Laboratories, Illinois, USA).
pMHC used for positive and negative control stimulations were A*0201/MLA-001 (peptide […] (SEQ ID NO. 289) from modified Melan-A/MART-1) and A*0201/DDX5-001 ([…] from DDX5, SEQ ID NO. 290), respectively.
800,000 beads/200 μl were coated in 96-well plates in the presence of 4×12.5 ng different biotin-pMHC, washed and 600 ng biotin anti-CD28 were added subsequently in a volume of 200 μl. Stimulations were initiated in 96-well plates by co-incubating 1×10^6 CD8+ T cells with 2×10^5 washed coated beads in 200 μl TCM supplemented with 5 ng/ml IL-12 (PromoCell) for 3 days at 37° C. Half of the medium was then exchanged by fresh TCM supplemented with 80 U/ml IL-2 and incubating was continued for 4 days at 37° C. This stimulation cycle was performed for a total of three times. For the pMHC multimer readout using 8 different pMHC molecules per condition, a two-dimensional combinatorial coding approach was used as previously described (Andersen et al., 2012) with minor modifications encompassing coupling to 5 different fluorochromes. Finally, multimeric analyses were performed by staining the cells with Live/dead near IR dye (Invitrogen, Karlsruhe, Germany), CD8-FITC antibody clone SK1 (BD, Heidelberg, Germany) and fluorescent pMHC multimers. For analysis, a BD LSRII SORP cytometer equipped with appropriate lasers and filters was used. Peptide specific cells were calculated as percentage of total CD8+ cells. Evaluation of multimeric analysis was done using the FlowJo software (Tree Star, Oreg., USA). In vitro priming of specific multimer+CD8+ lymphocytes was detected by comparing to negative control stimulations.

HLA-A*02:01 = HLA-A*02:01 (Homo sapiens, UniProt P04439, D140Y/D185E/D98H/E176V/E277Q/G131W/G231S/I119V/I121R/I166T/I218V/L300P/L318F/N151K/N90K/P208A/P217A/Q86G/Q94H/R138H/R169H/T345S); assay: MHC binding assay (UV-ligand exchange, beta2m ELISA); settings: binding to HLA-A*02:01, β2m ELISA
In short: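 Peptide-MHC complexes made by UV-ligand exchange of a UV-cleavable peptide for test peptide; exchange yield measured by β2m ELISA on streptavidin-coated plates with samples diluted 100-fold, HRP anti-β2m and TMB read at 450 nm. Refolded HLA-A*02:01/MLA-001 monomers (15-500 ng/ml) served as standards.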

[1] = tested on: advanced non-resectable HCC; settings: advanced non-resectable HCC patients (Chapiro et al., 2014; Llovet et al., 2008); cited from earlier work

| Molecule | Peptide exchange (MHC class I binding score, peptide exchange yield) (HLA-A*02:01) | Wells positive [%] (CD8+ T cells) | increase of survival [1] |
| --- | --- | --- | --- |
| 82 (ILAEEPIYIRV; listed as Homo sapiens) [compound 82] | +++ (≥50 = +++) | +++ (50%-69% = +++) |  |
| 66 (AMFPDTIPRV; listed as Homo sapiens) [compound 66] | ++ (≥20% = ++) | + (<20% = +) |  |
| 267 (YLLDMPLWYL; listed as Homo sapiens) [compound 267] | +++ (≥50 = +++) | + (<20% = +) |  |
| 102 (GLYPVTLVGV; listed as Homo sapiens) [compound 102] | +++ (≥50 = +++) | + (<20% = +) |  |
| 50 (ILLSVLHQL; listed as Homo sapiens) [compound 50] | +++ (≥50 = +++) | + (<20% = +) |  |
| CNC(=O)c1cc(Oc2ccc(NC(=O)Nc3ccc(Cl)c(C(F)(F)F)c3)cc2)ccn1 [Sorafenib] |  |  | about 3 months |
| 157 (ILQDGQFLV; listed as Homo sapiens) [compound 157] | ++ (≥20% = ++) | + (<20% = +) |  |
| 97 (KLFEKSTGL; listed as Homo sapiens) [compound 97] | +++ (≥50 = +++) | + (<20% = +) |  |
| 14 (YTFSGDVQL; listed as Homo sapiens) [compound 14] | +++ (≥50 = +++) | + (<20% = +) |  |
| 254 (ALGDKFLLRV; listed as Homo sapiens) [compound 254] | ++ (≥20% = ++) | + (<20% = +) |  |
| 183 (ALSYILPYL; listed as Homo sapiens) [compound 183] | +++ (≥50 = +++) | +++ (50%-69% = +++) |  |
| 236 (KMSELQTYV; listed as Homo sapiens) [compound 236] | +++ (≥50 = +++) | + (<20% = +) |  |

The next lines start with results.

| Peptide exchange (MHC class I binding score, peptide exchange yield) (HLA-A*02:01) | Molecule | Wells positive [%] (CD8+ T cells) | increase of survival [1] |
| --- | --- | --- | --- |
| +++ (≥50 = +++) | 260 (ALNESLVEC; listed as Homo sapiens) [compound 260] | + (<20% = +) |  |
| +++ (≥50 = +++) | 242 (KLQEEIPVL; listed as Homo sapiens) [compound 242] | + (<20% = +) |  |
| +++ (≥50 = +++) | 257 (KLIDHQGLYL; listed as Homo sapiens) [compound 257] | + (<20% = +) |  |
| +++ (≥50 = +++) | 246 (ALAGIVTNV; listed as Homo sapiens) [compound 246] | + (<20% = +) |  |
| ++ (≥20% = ++) | 18 (KTASINQNV; listed as Homo sapiens) [compound 18] | +++ (50%-69% = +++) |  |
| +++ (≥50 = +++) | 77 (ALYGNVQQV; listed as Homo sapiens) [compound 77] | + (<20% = +) |  |
| +++ (≥50 = +++) | 263 (SIIEYLPTL; listed as Homo sapiens) [compound 263] | + (<20% = +) |  |
